Measured values taken from patent EP0414533A1, “Use of iodopropargyl esters of alpha-amino acid derivatives as antimicrobial agents” (ROHM AND HAAS COMPANY, priority 1989, dated 1991).
≈ marks a conversion by molar mass, not a printed value. Read-outs that look alike come from different tables or passages of the source.

Key:
[1] = system: MIXED COOLING TOWER ALGAE; assay: MIC test against mixed cooling tower algae; assay type: cell-based, green algae and blue-green bacteria; conditions: Table VIII
Procedure: The algae culture contains green algae and blue-green bacteria, and is obtained from a cooling tower in Spring House, Pennsylvania. The algae culture is grown in Allen's medium on a rotary shaker under flourescent room lighting. This culture is further diluted with Allen's medium and then added to the test vessel.

Botrytis cinerea (BOC) = assay: In-vitro plant fungicide test; assay type: cell-based; conditions: Botrytis cinerea
Fusarium roseum (FUS) = assay: In-vitro plant fungicide test; assay type: cell-based; conditions: Fusarium sambucinum
7 FUNGI = assay: Microbicides broad spectrum secondary test against 7 fungi (Table V); assay type: cell-based; parameters: key: 1= no growth; 0= growth of the indicated fungi at dose indicated in ppm; conditions: Mycophile agar, pH 5.0; for ANIG growth: Aspergillus niger; for APUL growth: Aureobasidium pullulans; for CRES growth: Cladosporium resinae; for GTRA growth: Gloeophyllum trabeum; for PFUN growth: Penicillium funiculosum; for RRUB growth: Rhodotorula rubra; for SSER growth: Sacharomyces cerevisiae
Procedure: In the case of fungi, the spores are harvested by pipetting water onto the slant and dislodging the spores with a sterile loop. The cell/spore suspension is standardized by controlling incubation time, temperature, and the volume of the diluent. The suspension is then used to inoculate the vessels containing the broth compound. […] The results of the minimum inhibitory concentration (MIC) tests of compounds of this invention are shown in Tables IIIa IIIb, IIIc, V, VI, VII, and VIII against the microorganisms shown in Table IX. [table]

Rhizoctonia solani (RHI) = assay: In-vitro plant fungicide test; assay type: cell-based; conditions: Rhizoctonia solani
ALT = assay: In-vitro plant fungicide test; assay type: cell-based; conditions: Table IVb, read-out: % Control at (ppm) indicated ALT
PSH = assay: In-vitro plant fungicide test; assay type: cell-based; conditions: Table IVb, read-out: % Control at (ppm) indicated PSH
CER = assay: In-vitro plant fungicide test; assay type: cell-based; conditions: Table IVb, read-out: % Control at (ppm) indicated CER
[2] = Table IVa, *=Phytotoxic, read-out: % Control at 25 ppm BOC
[3] = read-out: % Control at 25 ppm FUS, 25 ppm, Table IVa, *=Phytotoxic
[4] = Table IVa, read-out: % Control at 25 ppm RHI

SMILES: O=C(CNC(=O)c1ccccc1)OCC#CI [Compound 29, N-benzoylglycine iodopropargyl ester]
- MIC [1]: 6.2 µg/mL (≈ 18.1 µM)
- inhibition of growth at 25 ppm (Botrytis cinerea (BOC); [2]): 100%
- inhibition of growth at 25 ppm (Fusarium roseum (FUS); [3]): 100%
- ANIG growth (7 FUNGI; 0.2 PPM): 0
- ANIG growth (7 FUNGI; 1 PPM): 0
- ANIG growth (7 FUNGI; 5 PPM): 1
- ANIG growth (7 FUNGI; 25 PPM): 1
- APUL growth (7 FUNGI; 0.2 PPM): 0
- APUL growth (7 FUNGI; 1 PPM): 0
- APUL growth (7 FUNGI; 5 PPM): 1
- APUL growth (7 FUNGI; 25 PPM): 1
- CRES growth (7 FUNGI; 0.2 PPM): 0
- CRES growth (7 FUNGI; 1 PPM): 0
- CRES growth (7 FUNGI; 5 PPM): 1
- CRES growth (7 FUNGI; 25 PPM): 1
- GTRA growth (7 FUNGI; 0.2 PPM): 1
- GTRA growth (7 FUNGI; 1 PPM): 1
- GTRA growth (7 FUNGI; 5 PPM): 1
- GTRA growth (7 FUNGI; 25 PPM): 1
- PFUN growth (7 FUNGI; 0.2 PPM): 0
- PFUN growth (7 FUNGI; 1 PPM): 0
- PFUN growth (7 FUNGI; 5 PPM): 1
- PFUN growth (7 FUNGI; 25 PPM): 1
- RRUB growth (7 FUNGI; 0.2 PPM): 0
- RRUB growth (7 FUNGI; 1 PPM): 0
- RRUB growth (7 FUNGI; 5 PPM): 1
- RRUB growth (7 FUNGI; 25 PPM): 1
- SSER growth (7 FUNGI; 0.2 PPM): 0
- SSER growth (7 FUNGI; 1 PPM): 0
- SSER growth (7 FUNGI; 5 PPM): 1
- SSER growth (7 FUNGI; 25 PPM): 1
- inhibition of growth at 25 ppm (Rhizoctonia solani (RHI); [4]): 100%

SMILES: O=C(CN1C(=O)c2ccccc2C1=O)OCC#CI [Compound 30, N-phthaloylglycine iodopropargyl ester]
- MIC [1]: 6.2 µg/mL (≈ 16.8 µM)
- inhibition of growth at 1.5 ppm (Botrytis cinerea (BOC); 1.5 ppm, Table IVb, read-out: % Control at (ppm) indicated BOC): 0%
- inhibition of growth at 6 ppm (Botrytis cinerea (BOC); 6 ppm, Table IVb, read-out: % Control at (ppm) indicated BOC): 0%
- inhibition of growth at 25 ppm (Botrytis cinerea (BOC); [2]): 100%
- inhibition of growth at 25 ppm (Botrytis cinerea (BOC); Table IVb, read-out: % Control at (ppm) indicated BOC): 90%
- inhibition of growth at 0.2 ppm (Botrytis cinerea (BOC); .2 ppm, Table IVb, read-out: % Control at (ppm) indicated BOC): 0%
- inhibition of growth at 0.4 ppm (Botrytis cinerea (BOC); .4 ppm, Table IVb, read-out: % Control at (ppm) indicated BOC): 0%
- inhibition of growth at 0.8 ppm (Botrytis cinerea (BOC); .8 ppm, Table IVb, read-out: % Control at (ppm) indicated BOC): 0%
- inhibition of growth at 1.5 ppm (ALT; 1.5 ppm): 0%
- inhibition of growth at 3 ppm (ALT; 3 ppm): 50%
- inhibition of growth at 6 ppm (ALT; 6 ppm): 90%
- inhibition of growth at 12 ppm (ALT; 12 ppm): 100%
- inhibition of growth at 25 ppm (ALT; 25 ppm): 100%
- inhibition of growth at 0.2 ppm (ALT; .2 ppm): 0%
- inhibition of growth at 0.4 ppm (ALT; .4 ppm): 0%
- inhibition of growth at 0.8 ppm (ALT; .8 ppm): 0%
- inhibition of growth at 25 ppm (Fusarium roseum (FUS); [3]): 100%
- inhibition of growth at 1.5 ppm (Fusarium roseum (FUS); read-out: % Control at (ppm) indicated FUS, 1.5 ppm, Table IVb): 0%
- inhibition of growth at 3 ppm (Fusarium roseum (FUS); read-out: % Control at (ppm) indicated FUS, 3 ppm, Table IVb): 100%
- inhibition of growth at 6 ppm (Fusarium roseum (FUS); read-out: % Control at (ppm) indicated FUS, 6 ppm, Table IVb): 100%
- inhibition of growth at 12 ppm (Fusarium roseum (FUS); read-out: % Control at (ppm) indicated FUS, 12 ppm, Table IVb): 100%
- inhibition of growth at 25 ppm (Fusarium roseum (FUS); read-out: % Control at (ppm) indicated FUS, 25 ppm, Table IVb): 100%
- inhibition of growth at 0.2 ppm (Fusarium roseum (FUS); read-out: % Control at (ppm) indicated FUS, .2 ppm, Table IVb): 0%
- inhibition of growth at 0.4 ppm (Fusarium roseum (FUS); read-out: % Control at (ppm) indicated FUS, .4 ppm, Table IVb): 0%
- inhibition of growth at 0.8 ppm (Fusarium roseum (FUS); read-out: % Control at (ppm) indicated FUS, .8 ppm, Table IVb): 0%
- inhibition of growth at 1.5 ppm (PSH; 1.5 ppm): 100%
- inhibition of growth at 6 ppm (PSH; 6 ppm): 100%
- inhibition of growth at 25 ppm (PSH; 25 ppm): 100%
- inhibition of growth at 0.2 ppm (PSH; .2 ppm): 0%
- inhibition of growth at 0.4 ppm (PSH; .4 ppm): 100%
- inhibition of growth at 0.8 ppm (PSH; .8 ppm): 100%
- inhibition of growth at 1.5 ppm (Rhizoctonia solani (RHI); 1.5 ppm, Table IVb, read-out: % Control at (ppm) indicated RHI): 0%
- inhibition of growth at 6 ppm (Rhizoctonia solani (RHI); 6 ppm, Table IVb, read-out: % Control at (ppm) indicated RHI): 100%
- inhibition of growth at 25 ppm (Rhizoctonia solani (RHI); [4]): 90%
- inhibition of growth at 25 ppm (Rhizoctonia solani (RHI); Table IVb, read-out: % Control at (ppm) indicated RHI): 100%
- inhibition of growth at 0.2 ppm (Rhizoctonia solani (RHI); .2 ppm, Table IVb, read-out: % Control at (ppm) indicated RHI): 0%
- inhibition of growth at 0.4 ppm (Rhizoctonia solani (RHI); .4 ppm, Table IVb, read-out: % Control at (ppm) indicated RHI): 0%
- inhibition of growth at 0.8 ppm (Rhizoctonia solani (RHI); .8 ppm, Table IVb, read-out: % Control at (ppm) indicated RHI): 0%
- inhibition of growth at 1.5 ppm (CER; 1.5 ppm): 0%
- inhibition of growth at 25 ppm (CER; 25 ppm): 100%
- inhibition of growth at 0.2 ppm (CER; .2 ppm): 0%
- inhibition of growth at 0.4 ppm (CER; .4 ppm): 0%
- inhibition of growth at 0.8 ppm (CER; .8 ppm): 0%
